No end group written: not given here. Far = not defined here
How the values were obtained:
M-factor receptor Map3 = target: T1, M-factor receptor Map3 (Schizosaccharomyces pombe, UniProt P31397); test: In vitro M-factor activity assay using a map4 promoter–lacZ fusion (β-galactosidase); type: cell-based; details: synthetic peptide 10 µM, map4-lacZ reporter strain, nitrogen-free SSL medium, pH 5.5 or 7.0
T1 construct: Tester strain TS472 was inoculated into 5 mL SSL + N medium; endogenous in cells; host or cells: S. pombe tester strain TS472 (map4 promoter-lacZ reporter)
T1 sequence (P31397 1-365): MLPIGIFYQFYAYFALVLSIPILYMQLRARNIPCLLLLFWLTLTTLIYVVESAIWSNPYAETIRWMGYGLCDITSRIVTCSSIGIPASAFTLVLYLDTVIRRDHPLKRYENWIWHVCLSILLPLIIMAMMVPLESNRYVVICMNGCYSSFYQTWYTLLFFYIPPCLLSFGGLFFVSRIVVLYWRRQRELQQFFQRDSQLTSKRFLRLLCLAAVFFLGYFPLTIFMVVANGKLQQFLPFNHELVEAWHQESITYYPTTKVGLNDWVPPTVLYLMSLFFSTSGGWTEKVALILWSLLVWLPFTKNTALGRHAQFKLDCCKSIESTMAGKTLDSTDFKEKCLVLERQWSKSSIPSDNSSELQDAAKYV
Protocol: β-galactosidase activity was measured to evaluate activation of the M-factor receptor Map3 using synthetic M-factor peptides, following a previously described method[22]. Tester strain TS472 was inoculated into 5 mL SSL + N medium (SSA without agar) at an initial OD600 of 0.1 and cultured at 30 °C for 20 h. Cells were washed three times with SSL–N medium (lacking 0.5 g/L aspartic acid) and resuspended in SSL–N at varying pH values (adjusted with HCl or NaOH) to OD600 = 2.0.
Thereafter, cells were washed and resuspended in Z-buffer (60 mM Na2HPO4, 40 mM NaH2PO4, 10 mM KCl, 1 mM MgSO4·7H2O, and 50 mM β-mercaptoethanol; pH 7.0) to OD600 = 5.0. For each replicate (n = 3), 200 µL of cell suspension was mixed with 600 µL Z-buffer, 15 µL chloroform, and 12 µL 0.1% SDS, vortexed, and incubated at 30 °C for 5 min. Reactions were initiated with 160 µL o-nitrophenyl-β-D-galactopyranoside (ONPG; 4 mg/mL in Z-buffer), and both start and end times were recorded. After incubation at 30 °C, reactions were terminated with 400 µL 1 M Na2CO3, centrifuged (13,000 rpm, 3 min, 4 °C), and 200 µL supernatant was diluted into 1 mL 0.33 M Na2CO3. Absorbance at 420 nm (OD420) was measured to calculate Miller units. Miller units=(OD420×1000)/(V×t×OD600) where V is reaction volume (mL) and t is reaction time (minute). Data are reported as the mean ± s.d. […]

[1] = test system: S. pombe h90 strains (mating and sporulation); test: Frequency of zygote formation (microscopy-based mating frequency); type: cell-based, Schizosaccharomyces pombe
Protocol: Cells were pre-cultured on YEA medium at 30 °C overnight, washed with 1 mL sterilized water (10,000 rpm, 3 min, 4 °C), and adjusted to an OD600 of 5.0. Aliquots (30 µL) were spotted on YEA, MEA, SSA, or fruit/vegetable juice media (grape, orange, apple, vegetable) and incubated at 30 °C for 48 h. After 48 h, cells were harvested and examined using a differential interference contrast microscopy (BX53, Olympus, Tokyo, Japan) with the UPlanSApo 60×/1.35 NA oil-immersion objective, ORCA-spark camera (Hamamatsu Photonics, Hamamatsu, Japan), and CellSens software. Nine random fields were imaged per plate. Mating rates were calculated as in Seike et al.[11] using the equation: Mating rate(%)=2Z+2A+0.5S×100/V+2Z+2A+0.5S where V, Z, A, and S represent vegetative cells, zygotes, asci, and spores, respectively. Data are reported as the mean ±s.d.
All statistical analyses treated biological replicates (n = 3) as the unit of replication. Unless stated otherwise, values are reported as mean ± s.d., tests were two-sided, and no data were excluded. For two-group comparisons we used Welch’s t test (unequal variances). Significance in figures is denoted as p < 0.05, p < 0.01, and p < 0.001. […] For microscopy-based mating assays, nine random fields were scored per plate; field values were averaged within each biological replicate to avoid pseudoreplication. […] Analyses were performed in Python (pandas, numpy, math); plots were generated using matplotlib and seaborn.

pH dependence of β-galactosidase activity (Map3 activation) (M-factor receptor Map3)	Substance	Mating competence at pH 5.5 ([1]; SSA pH 5.5, 48 h)	Cells forming mature asci ([1]; SSA pH 7.5–8.5, 48 h)	Effect on mating in background with intact mfm2+ and mfm3+ genes ([1]; mfm1-P36H in h90 mfm2+ mfm3+ background, SSA pH 5.5 and pH 7.0)
higher activity at acidic pH	T2Q: M-factor single-amino acid variant; also tested as synthetic peptide (Eurofins) (YQPKVPYMC(Far)-OMe; ends and bridges not checked; UniProt P34068 31-39, looked up, variant T32Q)			
	P6H: M-factor single-amino acid variant; also tested as synthetic peptide (Eurofins) (YTPKVHYMC(Far)-OMe; ends and bridges not checked; UniProt P34068 31-39, looked up, variant P36H)	virtually sterile	approximately 50%	does not exert a dominant-negative effect on mating
